Patent US20200055883A1, “CYCLIC DI-NUCLEOTIDES DERIVATIVE FOR THE TREATMENT OF CANCER” (Eisai R&D Management Co., Ltd., priority 2017, published 2020)
pEC50: −log10 of the molar value. Read-outs that look alike come from different tables or passages of the source.

Legend:
Human STING HAQ = Human STING HAQ (Homo sapiens, UniProt Q86WV6, G230A/H232R/R293Q/R71H); experiment: HAQ STING agonist activity reporter assay (THP1-Dual cells)
WT Human STING = WT Human STING (Homo sapiens, UniProt Q86WV6, H232R); experiment: STING variant specific reporter assay, WT-STING (THP1-Dual KO-STING cells); conditions: Human STING EC50 (μM) WT, ammonium salt form of each compound
Sequence of WT Human STING (Q86WV6 whole entry H232R): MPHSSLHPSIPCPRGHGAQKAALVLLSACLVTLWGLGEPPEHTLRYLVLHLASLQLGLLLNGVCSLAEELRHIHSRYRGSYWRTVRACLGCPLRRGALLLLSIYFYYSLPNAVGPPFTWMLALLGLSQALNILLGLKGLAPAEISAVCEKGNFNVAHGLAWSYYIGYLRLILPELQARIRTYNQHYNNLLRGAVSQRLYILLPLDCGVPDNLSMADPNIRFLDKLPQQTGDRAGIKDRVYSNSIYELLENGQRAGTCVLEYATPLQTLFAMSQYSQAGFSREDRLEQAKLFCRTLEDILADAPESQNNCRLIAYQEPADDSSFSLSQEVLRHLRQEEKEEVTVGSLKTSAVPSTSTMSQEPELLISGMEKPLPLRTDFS

AQ Human STING = AQ Human STING (Homo sapiens, UniProt Q86WV6, G230A/H232R/R293Q); experiment: STING variant specific reporter assay, AQ-STING (THP1-Dual KO-STING cells); conditions: ammonium salt form of each compound
Sequence of AQ Human STING (Q86WV6 whole entry G230A/H232R/R293Q): as the sequence (Q86WV6 whole entry H232R) above, with G230A, R293Q counted along it

REF Human STING = REF Human STING (Homo sapiens, UniProt Q86WV6); experiment: STING variant specific reporter assay, REF-STING (THP1-Dual KO-STING cells)
Sequence of REF Human STING (Q86WV6 whole entry): as the sequence (Q86WV6 whole entry H232R) above, with R232H counted along it

[1] = hSTING EC50 (μM) HAQ, Table 6, ammonium salt form, except Compounds 26, 33, 34 tested as bis-TEA salts
[2] = hSTING EC50 (μM) HAQ, Table 8, ammonium salt form of each compound
[3] = Human STING EC50 (μM) HAQ, Table 5, ammonium salt form of each compound, 20 hrs
[4] = Human STING EC50 (μM) HAQ, Table 4, ammonium salt form of each compound, 20 hrs
[5] = Human STING EC50 (μM) AQ, Table 5
[6] = Human STING EC50 (μM) AQ, Table 4

Sequence of Human STING HAQ (Q86WV6 whole entry R71H/G230A/H232R/R293Q): as the sequence (Q86WV6 whole entry H232R) above, with R71H, G230A, R293Q counted along it

## Nc1nc2c3ncn(c3n1)[C@@H]1O[C@@H]3COP(O)(=S)O[C@H]4[C@@H](F)[C@@H](O[C@@H]4COP(O)(=S)O[C@H]3[C@H]1F)n1cnc3c(ncnc31)NC/C=C/CO2 (stereo partly shown) [Compound 23]
Human STING HAQ; hSTING EC50 (μM) HAQ
  EC50: 62.3 µM

## O=P1(S)OC[C@H]2O[C@@H]3[C@H](F)[C@@H]2OP(=O)(S)OC[C@H]2O[C@H]([C@H](F)[C@@H]2O1)n1cnc2c(ncnc21)NC/C=C/COc1ncnc2c1ncn23 (single isomer, unassigned) [Compound 19]
Human STING HAQ; [1]
  EC50: 94.1 µM

## O=[P@]1(S)N[C@@H]2[C@H]3CO[P@](=O)(S)N[C@H]4[C@@H](O)[C@@H](O[C@@H]4CO1)n1cnc4c(ncnc41)NC/C=C/CNc1ncnc4c1ncn4C(O3)[C@@H]2O [Compound 38]
Human STING HAQ; [2]
  EC50: 79.9 µM

## O=P1(S)OC[C@H]2O[C@@H]3[C@H](F)[C@@H]2OP(=O)(S)OC[C@H]2OC([C@H](F)[C@@H]2O1)n1cnc2c(ncnc21)NCC/C=C/CNc1ncnc2c1ncn23 (single isomer, unassigned) [Compound 11]
Human STING HAQ; [3]
  EC50: 6.8 µM

## O=P1(S)OC[C@H]2O[C@@H]3[C@H](F)[C@@H]2OP(=O)(S)OC[C@H]2O[C@H]([C@H](F)[C@@H]2O1)n1cnc2c(ncnc21)NC/C=C/COc1ncnc2c1ncn23 (single isomer, unassigned) [Compound 20]
Human STING HAQ; [1]
  EC50: 2.8 µM

## O=[P@@]1(S)OC[C@H]2OC3[C@H](O)[C@@H]2O[P@](=O)(S)OC[C@H]2O[C@H]([C@H](O1)[C@@H]2O)n1cnc2c(ncnc21)NC/C=C/CNc1ncnc2c1ncn23 [Compound 14]
Human STING HAQ; [4]
  EC50: 58.2 µM
WT Human STING; Table 4
  EC50: 69.8 µM
AQ Human STING; read-out: Human STING EC50 (μM) AQ, Table 4
  EC50: > 100 µM
REF Human STING; read-out: Human STING EC50 (μM) REF, Table 4, ammonium salt form of each compound
  EC50: > 100 µM

## O=P1(O)OC[C@H]2OC3[C@H](F)[C@@H]2O[P@@](O)(=S)OC[C@H]2O[C@H]([C@H](F)[C@@H]2O1)n1cnc2c(ncnc21)NC/C=C/CNc1ncnc2c1ncn23 [Compound 27]
Human STING HAQ; hSTING EC50 (μM) HAQ
  EC50: 9.8 µM

## O=P1(S)OC[C@H]2O[C@@H]3[C@H](F)[C@@H]2OP(=O)(S)OC[C@H]2OC([C@H](F)[C@@H]2O1)n1cnc2c(ncnc21)NCC/C=C/CNc1ncnc2c1ncn23 (single isomer, unassigned) [Compound 12]
Human STING HAQ; [3]
  EC50: 8.2 µM

## O=[P@]1(S)OC[C@H]2OC3[C@H](F)[C@@H]2O[P@](=O)(S)OC[C@H]2O[C@H]([C@H](F)[C@@H]2O1)n1cnc2c(ncnc21)NCCCCNc1ncnc2c1ncn23 [Compound 6]
Human STING HAQ; [3]
  EC50: 10.5 µM
WT Human STING; Table 5
  EC50: 5.7 µM
AQ Human STING; [5]
  EC50: 9 µM
REF Human STING
  pEC50: 4.38

## O=P1(S)OC[C@H]2OC3[C@H](OP(=O)(S)OC[C@H]4O[C@H]([C@H](O1)[C@@H]4O)n1cnc4c(ncnc41)NC/C=C/CNc1ncnc4c1ncn43)[C@@H]2O (stereo partly shown) [Compound 31]
Human STING HAQ; hSTING EC50 (μM) HAQ, Table 7, ammonium salt form of each compound
  EC50: 20.2 µM

## O=[P@]1(S)OC[C@H]2OC3[C@H](F)[C@@H]2O[P@](=O)(S)OC[C@H]2O[C@H]([C@H](O1)[C@@H]2O)n1cnc2c(ncnc21)NC/C=C/CNc1ncnc2c1ncn23 [Compound 15]
Human STING HAQ; [4]
  EC50: 24.7 µM
WT Human STING; Table 4
  EC50: 11.6 µM
AQ Human STING; [6]
  EC50: 13.1 µM
REF Human STING
  pEC50: 4.18

## O=[P@@]1(S)OC[C@H]2O[C@@H]3[C@H](F)[C@@H]2O[P@](=O)(S)OC[C@H]2OC([C@H](F)[C@@H]2O1)n1cnc2c(ncnc21)CC/C=C/CCc1ncnc2c1ncn23 [Compound 34]
Human STING HAQ; [1]
  EC50: 2.3 µM

## O=P1(S)N[C@@H]2[C@H]3COP(=O)(S)N[C@H]4[C@@H](O)[C@@H](O[C@@H]4CO1)n1cnc4c(ncnc41)NC/C=C/CNc1ncnc4c1ncn4C(O3)[C@@H]2O (stereo partly shown) [Compound 39]
Human STING HAQ; [2]
  EC50: 29.6 µM

## O=P1(O)OC[C@H]2O[C@@H]3[C@H](F)[C@@H]2OP(=O)(O)OC[C@H]2OC([C@H](F)[C@@H]2O1)n1cnc2c(ncnc21)NC/C=C/CNc1ncnc2c1ncn23 [Compound 9]
Human STING HAQ; [3]
  EC50: 39.2 µM
WT Human STING; Table 5
  EC50: 18 µM
AQ Human STING; [5]
  EC50: 30.9 µM
REF Human STING
  pEC50: 4.50

## O=P1(S)OC[C@H]2O[C@@H]3[C@H](F)[C@@H]2OP(=O)(S)OC[C@H]2O[C@H]([C@H](F)[C@@H]2O1)n1cnc2c(ncnc21)NC/C=C/COc1ncnc2c1ncn23 (single isomer, unassigned) [Compound 18]
Human STING HAQ; [1]
  EC50: 2.3 µM

## O=[P@]1(S)OC[C@H]2OC3[C@H](O)[C@@H]2O[P@](=O)(S)OC[C@H]2O[C@H]([C@H](O1)[C@@H]2O)n1cnc2c(ncnc21)NC/C=C/CNc1ncnc2c1ncn23 [Compound 13]
Human STING HAQ; [4]
  EC50: 26.7 µM

## O=P1(O)OC[C@H]2OC3[C@H](F)[C@@H]2O[P@](O)(=S)OC[C@H]2O[C@H]([C@H](F)[C@@H]2O1)n1cnc2c(ncnc21)NC/C=C/CNc1ncnc2c1ncn23 [Compound 28]
Human STING HAQ; hSTING EC50 (μM) HAQ
  EC50: 10.2 µM

## O=[P@@]1(S)OC[C@H]2OC3[C@H](F)[C@@H]2O[P@](=O)(S)OC[C@H]2O[C@H]([C@H](O1)[C@@H]2O)n1cnc2c(ncnc21)NC/C=C/CNc1ncnc2c1ncn23 [Compound 16]
Human STING HAQ; [4]
  EC50: 28.8 µM
WT Human STING; Table 4
  EC50: 25.7 µM
AQ Human STING; [6]
  EC50: 20.4 µM
REF Human STING
  pEC50: 4.18

## O=[P@]1(S)OC[C@H]2OC3[C@H](F)[C@@H]2O[P@](=O)(S)OC[C@H]2O[C@H]([C@H](F)[C@@H]2O1)n1cnc2c(ncnc21)NCC#CCNc1ncnc2c1ncn23 [Compound 29]
Human STING HAQ; [1]
  EC50: 0.62 µM

## Nc1nc2c3ncn(c3n1)[C@@H]1O[C@@H]3COP(O)(=S)O[C@H]4[C@@H](F)[C@@H](O[C@@H]4COP(O)(=S)O[C@H]3[C@H]1F)n1cnc3c(ncnc31)NC/C=C/CO2 (single isomer, unassigned) [Compound 22]
Human STING HAQ; hSTING EC50 (μM) HAQ
  EC50: 41.2 µM

## O=[P@@]1(S)OC[C@H]2O[C@@H]3[C@H](F)[C@@H]2O[P@](=O)(S)OC[C@H]2OC([C@H](F)[C@@H]2O1)n1cnc2c(ncnc21)OC/C=C/COc1ncnc2c1ncn23 [Compound 26]
Human STING HAQ; [1]
  EC50: 2.3 µM

## Nc1nc2c3ncn(c3n1)[C@@H]1O[C@@H]3COP(O)(=S)O[C@H]4[C@@H](F)[C@@H](O[C@@H]4COP(O)(=S)O[C@H]3[C@H]1F)n1cnc3c(ncnc31)NC/C=C/CO2 (single isomer, unassigned) [Compound 21]
Human STING HAQ; hSTING EC50 (μM) HAQ
  EC50: 83.3 µM

## O=P1(S)OC[C@H]2O[C@@H]3[C@H](F)[C@@H]2OP(=O)(S)OC[C@H]2OC([C@H](F)[C@@H]2O1)n1cnc2c(ncnc21)NCC/C=C/CNc1ncnc2c1ncn23 (single isomer, unassigned) [Compound 8]
Human STING HAQ; [3]
  EC50: 69.7 µM
WT Human STING; Table 5
  EC50: 68.7 µM
AQ Human STING; [5]
  EC50: 81 µM
REF Human STING
  pEC50: < 4.00

## O=[P@]1(S)OC[C@H]2OC3[C@H](F)[C@@H]2O[P@](=O)(S)OC[C@H]2O[C@H]([C@H](F)[C@@H]2O1)n1cnc2c(ncnc21)NCC1NC1CNc1ncnc2c1ncn23 (single isomer, unassigned) [Compound 36]
Human STING HAQ; [1]
  EC50: 31.4 µM

## O=P1(S)OC[C@H]2O[C@@H]3[C@H](F)[C@@H]2OP(=O)(S)OC[C@H]2OC([C@H](F)[C@@H]2O1)n1cnc2c(ncnc21)NCC/C=C/CNc1ncnc2c1ncn23 (single isomer, unassigned) [Compound 37]
Human STING HAQ; [3]
  EC50: 87.2 µM
WT Human STING; Table 5
  EC50: > 100 µM
AQ Human STING; [5]
  EC50: 82.2 µM

## O=[P@]1(S)OC[C@H]2OC3[C@H](F)[C@@H]2O[P@](=O)(S)OC[C@H]2O[C@H]([C@H](F)[C@@H]2O1)n1cnc2c(ncnc21)NC[C@H](O)[C@@H](O)CNc1ncnc2c1ncn23 [Compound 32]
Human STING HAQ; [1]
  EC50: 15.7 µM
REF Human STING; read-out: hSTING EC50 (μM) REF, Table 6, ammonium salt form, except Compounds 26, 33, 34 tested as bis-TEA salts
  EC50: > 100 µM

## O=[P@]1(S)OC[C@H]2OC3[C@H](F)[C@@H]2O[P@](=O)(S)OC[C@H]2O[C@H]([C@H](F)[C@@H]2O1)n1cnc2c(ncnc21)NCC1NC1CNc1ncnc2c1ncn23 (single isomer, unassigned) [Compound 35]
Human STING HAQ; [1]
  EC50: 44.5 µM

## O=[P@]1(S)OC[C@H]2OC3[C@H](F)[C@@H]2O[P@](=O)(S)OC[C@H]2O[C@H]([C@H](F)[C@@H]2O1)n1cnc2c(ncnc21)CC/C=C/CCc1ncnc2c1ncn23 [Compound 33]
Human STING HAQ; [1]
  EC50: 21.5 µM
